Literature values as cited in patent publication US10314832B2, “β- and γ-diketones and γ-hydroxyketones as Wnt/β-catenin signaling pathway activators” (Samumed, LLC, priority 2010, dated 2019).

What was measured:
[1] = topical solution, patients with age-related hair loss; cited from earlier work
[2] = system: dedifferentiated Müller glia; conditions: photoreceptor-damaged retina; cited from earlier work

Molecule | patients with moderate regrowth of hair [1] | increase in proliferation of dedifferentiated Müller glia [2] [fold]
Nc1cc(N2CCCCC2)nc(N)[n+]1[O-] [minoxidil] | less than 40% | –
Wnt3a: Wnt ligand protein; soluble peptide agonist of LRP5 and Fzd co-receptors (protein, UniProt P56704 19-352, looked up) Protein Wnt-3a: SYPIWWSLAVGPQYSSLGSQPILCASIPGLVPKQLRFCRNYVEIMPSVAEGIKIGIQECQHQFRGRRWNCTTVHDSLAIFGPVLDKATRESAFVHAIASAGVAFAVTRSCAEGTAAICGCSSRHQGSPGKGWKWGGCSEDIEFGGMVSREFADARENRPDARSAMNRHNNEAGRQAIASHMHLKCKCHGLSGSCEVKTCWWSQPDFRAIGDFLKDKYDSASEMVVEKHRESRGWVETLRPRYTYFKVPTERDLVYYEASPNFCEPNPETGSFGTRDRTCNVSSHGIDGCDLLCCGRGHNARAERRREKCRCVFHWCCYVSCQECTRVYDVHTCK | – | > 20
